Test results reported in patent US11649251B2, “Substituted inhibitors of menin-MLL and methods of use” (Kura Oncology, Inc., priority 2017, dated 2023).

molecular target: T1, Menin MLL 4-43 (Homo sapiens, UniProt O00255); experiment: Fluorescence polarization (FP) competition assay of the menin-MLL interaction; format: binding; settings: fluorescence polarization competition with fluorescein-labeled MLL peptide
T1 sequence (O00255 1-610): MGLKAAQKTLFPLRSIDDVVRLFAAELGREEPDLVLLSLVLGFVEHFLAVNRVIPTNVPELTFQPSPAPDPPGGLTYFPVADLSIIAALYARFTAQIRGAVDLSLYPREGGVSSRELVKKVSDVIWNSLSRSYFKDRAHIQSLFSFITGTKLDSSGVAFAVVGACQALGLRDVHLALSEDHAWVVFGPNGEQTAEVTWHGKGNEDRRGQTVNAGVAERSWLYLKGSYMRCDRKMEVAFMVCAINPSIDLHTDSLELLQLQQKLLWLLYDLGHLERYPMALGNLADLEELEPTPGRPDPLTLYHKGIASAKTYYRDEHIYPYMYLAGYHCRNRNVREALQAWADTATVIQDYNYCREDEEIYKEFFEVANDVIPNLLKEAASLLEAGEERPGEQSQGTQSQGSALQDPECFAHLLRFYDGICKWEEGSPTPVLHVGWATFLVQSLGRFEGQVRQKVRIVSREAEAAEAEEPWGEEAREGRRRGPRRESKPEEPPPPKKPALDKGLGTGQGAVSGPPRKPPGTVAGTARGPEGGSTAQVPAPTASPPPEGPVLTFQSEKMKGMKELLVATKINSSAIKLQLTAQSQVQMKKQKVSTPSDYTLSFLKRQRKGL
Source text: This example illustrates an assay effective in monitoring the binding of MLL to menin. […] A fluorescein-labeled peptide containing the high affinity menin binding motif found in MLL was produced according to Yokoyama et al. (Cell, 2005, 123(2): 207-218), herein incorporated by reference in its entirety. Binding of the labeled peptide (1.7 kDa) to the much larger menin (˜67 kDa) is accompanied by a significant change in the rotational correlation time of the fluorophore, resulting in a substantial increase in the fluorescence polarization and fluorescence anisotropy (excitation at 500 nm, emission at 525 nm).

IC50	SMILES
50 to 250 nM	CNS(=O)(=O)N1CCN([C@@H](C)Cn2c(C#N)cc3c(C)c(CN4CCC5(CCN(c6nc(C)nc7sc(CC(F)(F)F)cc67)C5)C4)ccc32)CC1 (stereo partly drawn) [Compound 1, 4-((2S)-1-(2-cyano-4-methyl-5-((7-(2-methyl-6-(2,2,2-trifluoroethyl)thieno[2,3-d]pyrimidin-4-yl)-2,7-diazaspiro[4.4]nonan-2-yl)methyl)-1H-indol-1-yl)propan-2-yl)-N-methylpiperazine-1-sulfonamide]
250 to 1000 nM	CCC(=O)NC12CC(Cn3c(C#N)cc4c(C)c(CN5CCC6(CCN(c7nc(C)nc8sc(CC(F)(F)F)cc78)C6)C5)ccc43)(C1)C2 (stereo not shown) [Compound 3, N-(3-((2-cyano-4-methyl-5-((7-(2-methyl-6-(2,2,2-trifluoroethyl)thieno[2,3-d]pyrimidin-4-yl)-2,7-diazaspiro[4.4]nonan-2-yl)methyl)-1H-indol-1-yl)methyl)bicyclo[1.1.1]pentan-1-yl)propionamide]
< 50 nM	CNc1nc(N2CCC3(CCN(Cc4ccc5c(cc(C#N)n5C[C@H](C)N5CCN(S(=O)(=O)NC)CC5)c4C)C3)C2)c2cc(CC(F)(F)F)sc2n1 (stereo partly shown) [Compound 5]
50 to 250 nM	Cc1nc(N2CCC3(CCN(Cc4ccc5c(cc(C#N)n5C[C@H](C)N5CCN(S(C)(=O)=O)CC5)c4C)C3)C2)c2cc(CC(F)(F)F)sc2n1 (stereo partly shown) [Compound 8]
50 to 250 nM	CNc1nc(N2CCC3(CCN(Cc4ccc5c(cc(C#N)n5C[C@H](C)N5CCN(S(C)(=O)=O)CC5)c4C)C3)C2)c2cc(CC(F)(F)F)sc2n1 (stereo partly shown) [Compound 9]
50 to 250 nM	CCC(=O)NC12CC(Cn3c(C#N)cc4c(C)c(CN5CCC6(CCN(c7nc(NC)nc8sc(CC(F)(F)F)cc78)C6)C5)ccc43)(C1)C2 (stereo not shown) [Compound 11]
< 50 nM	CNc1nc(N2CCC3(CCN(C[C@H]4CC[C@H](NS(C)(=O)=O)CC4)C3)C2)c2cc(CC(F)(F)F)sc2n1 (stereo partly shown) [Compound 14]
< 50 nM	Cc1nc(N2CCC3(CCN(Cc4ccc5c(cc(C#N)n5C[C@H](C)N5CCN(S(C)(=O)=O)CC5)c4C)C3)C2)c2cc(CC(F)(F)F)sc2n1 (stereo partly shown) [Compound 17]
< 50 nM	Cc1nc(N2CCC3(CCN(Cc4ccc5c(cc(C#N)n5C[C@@H]5CNC(=O)CO5)c4C)C3)C2)c2cc(CC(F)(F)F)sc2n1 (stereo partly shown) [Compound 21]
< 50 nM	CNc1nc(N2CCC3(CCN(Cc4ccc5c(cc(C#N)n5C[C@@H]5CNC(=O)CO5)c4C)C3)C2)c2cc(CC(F)(F)F)sc2n1 (stereo partly shown) [Compound 22]
250 to 1000 nM	Cc1nc(N2CCC3(CCN(Cc4ccc(NS(C)(=O)=O)cc4)C3)C2)c2cc(CC(F)(F)F)sc2n1 (stereo not shown) [Compound 25]
50 to 250 nM	CNc1nc(N2CCC3(CCN(Cc4ccc(NS(C)(=O)=O)cc4)C3)C2)c2cc(CC(F)(F)F)sc2n1 (stereo not shown) [Compound 26]
250 to 1000 nM	Cc1nc(N2CCC3(CCN(Cc4ccc5c(c4)[nH]c(=O)n5CCO)C3)C2)c2cc(CC(F)(F)F)sc2n1 (stereo not shown) [Compound 29]
< 50 nM	CNc1nc(N2CCC3(CCN(Cc4ccc5c(c4)[nH]c(=O)n5CCO)C3)C2)c2cc(CC(F)(F)F)sc2n1 (stereo not shown) [Compound 30]
> 1000 nM	Cc1nc(N2CCC3(CCN(Cc4ccc5[nH]c(C#N)cc5c4C)C3)C2)c2cc(CC(F)(F)F)sc2n1 (stereo not shown) [Compound 41]
250 to 1000 nM	CNc1nc(N2CCC3(CCN(Cc4ccc5[nH]c(C#N)cc5c4C)C3)C2)c2cc(CC(F)(F)F)sc2n1 (stereo not shown) [Compound 42]
< 50 nM	Cc1c(CN2CCC3(CCN(c4ncnc5sc(CC(F)(F)F)cc45)C3)C2)ccc2c1cc(C#N)n2C[C@H](C)N1CCN(S(C)(=O)=O)CC1 (stereo partly shown) [Compound 43]
< 50 nM	Cc1c(CN2CCC3(CCN(c4ncnc5sc(CC(F)(F)F)cc45)C3)C2)ccc2c1cc(C#N)n2C[C@@H]1CNC(=O)OC1 (stereo partly shown) [Compound 44]
< 50 nM	CNS(=O)(=O)N1CCN([C@@H](C)Cn2c(C#N)cc3c(C)c(CN4CCC5(CCN(c6ncnc7sc(CC(F)(F)F)cc67)C5)C4)ccc32)CC1 (stereo partly shown) [Compound 45]
50 to 250 nM	CNc1nc(N2CCC3(CCN(Cc4ccc5c(cc(C#N)n5CCN5CCN(S(=O)(=O)NC)CC5)c4C)C3)C2)c2cc(CC(F)(F)F)sc2n1 (stereo not shown) [Compound 46]
< 50 nM	CNc1nc(N2CCC3(CCN(Cc4ccc5c(cc(C#N)n5C[C@H](C)N5CCC(S(=O)(=O)NC)CC5)c4C)C3)C2)c2cc(CC(F)(F)F)sc2n1 (stereo partly shown) [Compound 68]
< 50 nM	CNS(=O)(=O)C1CCN([C@@H](C)Cn2c(C#N)cc3c(C)c(CN4CCC5(CCN(c6nc(C)nc7sc(CC(F)(F)F)cc67)C5)C4)ccc32)CC1 (stereo partly shown) [Compound 69]
< 50 nM	CNS(=O)(=O)C1CCN([C@@H](C)Cn2c(C#N)cc3c(C)c(CN4CCC5(CCN(c6ncnc7sc(CC(F)(F)F)cc67)C5)C4)ccc32)CC1 (stereo partly shown) [Compound 70]
< 50 nM	CNc1nc(N2CCC3(CCN(Cc4ccc5c(cc(C#N)n5C[C@H](C)N5CCC(S(C)(=O)=O)CC5)c4C)C3)C2)c2cc(CC(F)(F)F)sc2n1 (stereo partly shown) [Compound 75]
< 50 nM	CNc1nc(N2CCC3(CCN(Cc4ccc5c(cc(C#N)n5CCN5CCC(S(C)(=O)=O)CC5)c4C)C3)C2)c2cc(CC(F)(F)F)sc2n1 (stereo not shown) [Compound 77]
> 1000 nM	CNc1nc(N2CCC3(CCN(Cc4ccc(NS(=O)(=O)NC)cc4)C3)C2)c2cc(CC(F)(F)F)sc2n1 (stereo not shown) [Compound 96]

IC50	SMILES
> 1000 nM	Cc1c(CN2CCC3(CCN(c4nc(N)nc5sc(CC(F)(F)F)cc45)C3)C2)ccc2[nH]c(C#N)cc12 (stereo not shown) [Compound 125]
50 to 250 nM	CCS(=O)(=O)Nc1ccc(CN2CCC3(CCN(c4nc(NC)nc5sc(CC(F)(F)F)cc45)C3)C2)cc1 (stereo not shown) [Compound 126]
50 to 250 nM	CNc1nc(N2CC3CN(Cc4ccc5[nH]c(C#N)cc5c4C)CC3C2)c2cc(CC(F)(F)F)sc2n1 (stereo not shown) [Compound 127]
> 1000 nM	CNc1nc(N2CC3CN(CCc4ccccc4)CC3C2)c2cc(CC(F)(F)F)sc2n1 (stereo not shown) [Compound 128]
> 1000 nM	CNc1nc(N2CC3CCN(Cc4ccc5[nH]c(C#N)cc5c4C)C3C2)c2cc(CC(F)(F)F)sc2n1 (stereo not shown) [Compound 129]
250 to 1000 nM	CNc1nc(N2CC3CN(CCc4ccc5[nH]ccc5c4)CC3C2)c2cc(CC(F)(F)F)sc2n1 (stereo not shown) [Compound 139]
> 1000 nM	CNc1nc(N2CC3CCN(Cc4ccc5[nH]c(=O)[nH]c5c4)C3C2)c2cc(CC(F)(F)F)sc2n1 (stereo not shown) [Compound 140]
> 1000 nM	CNc1nc(N2CC3CCN(Cc4ccccc4)C3C2)c2cc(CC(F)(F)F)sc2n1 (stereo not shown) [Compound 141]
> 1000 nM	CNc1nc(N2CC3CCN(CCc4ccccc4)C3C2)c2cc(CC(F)(F)F)sc2n1 (stereo not shown) [Compound 142]
> 1000 nM	CNc1nc(N2CCC3CCN(Cc4ccc5[nH]c(C#N)cc5c4C)C3C2)c2cc(CC(F)(F)F)sc2n1 (stereo not shown) [Compound 143]
> 1000 nM	CNc1nc(N2CCC3CCN(Cc4ccc5[nH]c(=O)[nH]c5c4)C3C2)c2cc(CC(F)(F)F)sc2n1 (stereo not shown) [Compound 144]
> 1000 nM	CNc1nc(N2CCC3CCN(Cc4ccccc4)C3C2)c2cc(CC(F)(F)F)sc2n1 (stereo not shown) [Compound 145]
> 1000 nM	CNc1nc(N2CC3CN(Cc4ccc(C#N)cc4)CC3C2)c2cc(CC(F)(F)F)sc2n1 (stereo not shown) [Compound 146]
> 1000 nM	CNc1nc(N2CC3CN(Cc4ccc(NS(C)(=O)=O)cc4)CC3C2)c2cc(CC(F)(F)F)sc2n1 (stereo not shown) [Compound 147]
> 1000 nM	CNc1nc(N2CC3CN(Cc4ccc(NC(C)=O)cc4)CC3C2)c2cc(CC(F)(F)F)sc2n1 (stereo not shown) [Compound 148]
> 1000 nM	Cc1nc(N2CC3CN(Cc4ccc5[nH]c(C#N)cc5c4C)CC3C2)c2cc(CC(F)(F)F)sc2n1 (stereo not shown) [Compound 149]
> 1000 nM	Cc1c(CN2CC3CN(c4ncnc5sc(CC(F)(F)F)cc45)CC3C2)ccc2[nH]c(C#N)cc12 (stereo not shown) [Compound 150]
> 1000 nM	CNc1nc(N2CC3CN(Cc4ccc5c(cc(C#N)n5CCN5CCN(S(C)(=O)=O)CC5)c4C)CC3C2)c2cc(CC(F)(F)F)sc2n1 (stereo not shown) [Compound 151]
250 to 1000 nM	CNc1nc(N2CCC3CN(Cc4ccccc4)CC3C2)c2cc(CC(F)(F)F)sc2n1 (stereo not shown) [Compound 152]
> 1000 nM	CNc1nc(N2CCC3CN(Cc4ccc5[nH]c(C#N)cc5c4C)CC3C2)c2cc(CC(F)(F)F)sc2n1 (stereo not shown) [Compound 153]
> 1000 nM	CNc1nc(N2CCC3CN(CCc4ccccc4)CC3C2)c2cc(CC(F)(F)F)sc2n1 (stereo not shown) [Compound 154]
250 to 1000 nM	CNc1nc(N2CCC3CN(CCc4ccc5[nH]ccc5c4)CC3C2)c2cc(CC(F)(F)F)sc2n1 (stereo not shown) [Compound 155]
> 1000 nM	CNc1nc(N2CC3CCN(Cc4ccccc4)CC3C2)c2cc(CC(F)(F)F)sc2n1 (stereo not shown) [Compound 156]
> 1000 nM	CNc1nc(N2CC3CCN(Cc4ccc5[nH]c(C#N)cc5c4C)CC3C2)c2cc(CC(F)(F)F)sc2n1 (stereo not shown) [Compound 157]
> 1000 nM	CNc1nc(N2CC3CCN(CCc4ccccc4)CC3C2)c2cc(CC(F)(F)F)sc2n1 (stereo not shown) [Compound 158]
> 1000 nM	CNc1nc(N2CC3CCN(CCc4ccc5[nH]ccc5c4)CC3C2)c2cc(CC(F)(F)F)sc2n1 (stereo not shown) [Compound 159]
